What was measured:
[1] = system: Tte-PreQ1 ab13_14_15 (RNA, riboswitch, abasic at 13, 14 and 15) CUGGGUCGCAGUNNNCCCAGUUAACAAAACAAG; experiment: X-ray crystallography, 2.25 Å; conditions: potassium sodium tartrate 100-300 mM; sodium citrate pH 5.6, ammonium sulfate 2.0-2.6 M, 20 °C
[2] = system: Cy5-labeled Bsu PreQ1 aptamer (RNA, riboswitch) GCGGGAGAGGUUCUAGCUACACCCUCUAUAAAAAACUAAGGACGAGCUGUAUCCUUGGAUACGGCC; experiment: Cy5 fluorescence intensity assay (text says ligand fluorescence); conditions: 100 mM KCl, 1 mM MgCl2; 50 mM Tris pH 7.5, room temperature, 5% DMSO, 50 nM RNA
[3] = system: Cy5-labeled Bsu PreQ1 aptamer (RNA, riboswitch) GCGGGAGAGGUUCUAGCUACACCCUCUAUAAAAAACUAAGGACGAGCUGUAUCCUUGGAUACGGCC; experiment: MST; conditions: 100 mM KCl, 1 mM MgCl2, 50 mM Tris pH 7.5, room temperature, DMSO
[4] = system: Cy5-labeled Bsu PreQ1 aptamer (RNA, riboswitch) GCGGGAGAGGUUCUAGCUACACCCUCUAUAAAAAACUAAGGACGAGCUGUAUCCUUGGAUACGGCC; experiment: MST (Figure S1 legend); text says ligand fluorescence; conditions: 100 mM KCl, 1 mM MgCl2; 50 mM Tris pH 7.5, room temperature, DMSO
[5] = system: F. prausnitzii PreQ1 (SHAPE-MaP) (RNA, riboswitch) GGGCCUUCGGGCCAAGGAACGCUGAAAGAGCAACUUAGGAUUUUAGGCUCCCCGGCGUGUCUCGAACCAUGCCGGGCCAAACCCAUAGGGCUGGCGGUCCCUGUGCGGUCAAAAUUCAUCCGCCGGAGUAUUGUUAUCGAUCCGGUUCGCCGGAUCCAAAUCGGGCUUCGGUCCGGUUC; experiment: SHAPE-MaP (2A3); conditions: 100 mM KCl, 1 mM MgCl2
[6] = system: L. rhamnosus PreQ1 (SHAPE-MaP) (RNA, riboswitch) GGGCCUUCGGGCCAAGGAACCGCCCCGCGCGCUUCCACGAUACUUAUUUCCUUUGAUCGUCGUUAUUACUGGCAAAGCCACAAAGGAGUCGAUCCGGUUCGCCGGAUCCAAAUCGGGCUUCGGUCCGGUUC; experiment: SHAPE-MaP (2A3); conditions: 100 mM KCl, 1 mM MgCl2
[7] = system: Bsu PreQ1 RNA (MAGNA) (RNA, riboswitch) UCGGCGAUCUACGCAGCGACAUAAUAAGAGGUUCUAGCUACACCCUCUAUAAAAAACUAAUAACAACCACUUCCUAAUCUGUCAUCUUCUG; experiment: magnetic force spectroscopy (MAGNA); conditions: 100 mM KCl, 1 mM MgCl2; 50 mM HEPES pH 7.4, 1% DMSO, 22 °C; 500 nM called saturating
[8] = system: T. tengcongensis PreQ1 (SHAPE-MaP) (RNA, riboswitch) GGGCCUUCGGGCCAACUCACCUGGGUCGCAGUAACCCCAGUUAACAAAACAAGGGAGGUAAUUUUUCGAUCCGGUUCGCCGGAUCCAAAUCGGGCUUCGGUCCGGUUC; experiment: SHAPE-MaP (2A3); conditions: 100 mM KCl, 1 mM MgCl2; 50 mM Tris pH 7.5, 10 μM compound
[9] = system: B. subtilis PreQ1 (SHAPE-MaP) (RNA, riboswitch) GGGCCUUCGGGCCAAGCGGGAGAGGUUCUAGCUACACCCUCUAUAAAAAACUAAGGACGAGCUGUAUCCUUGGAUACGGCCUUUUUCGAUCCGGUUCGCCGGAUCCAAAUCGGGCUUCGGUCCGGUUC; experiment: SHAPE-MaP (2A3); conditions: 100 mM KCl, 1 mM MgCl2
[10] = system: S. pneumoniae PreQ1 (SHAPE-MaP) (RNA, riboswitch) GGGCCUUCGGGCCAACUUGGUGCUUAGCUUCUUUCACCAAGCAUAUUACACGCGGAUAACCGCCAAAGGAGAAUCGAUCCGGUUCGCCGGAUCCAAAUCGGGCUUCGGUCCGGUUC; experiment: SHAPE-MaP (2A3); conditions: 100 mM KCl, 1 mM MgCl2
[11] = system: Tte-PreQ1 ab13_14_15 (RNA, riboswitch, abasic at 13, 14 and 15) CUGGGUCGCAGUNNNCCCAGUUAACAAAACAAG; experiment: X-ray crystallography, 2.15 Å; conditions: potassium sodium tartrate 100-300 mM; sodium citrate pH 5.6, ammonium sulfate 2.0-2.6 M, 20 °C
[12] = system: Bsu PreQ1 RNA (MAGNA) (RNA, riboswitch) UCGGCGAUCUACGCAGCGACAUAAUAAGAGGUUCUAGCUACACCCUCUAUAAAAAACUAAUAACAACCACUUCCUAAUCUGUCAUCUUCUG; experiment: magnetic force spectroscopy (MAGNA), median unfolding force; conditions: 100 mM KCl, 1 mM MgCl2; 50 mM HEPES pH 7.4, 1% DMSO, 22 °C; from refolding force 456±258 μM
[13] = 50 mM Tris pH 7.5, 10 μM compound
[14] = 50 mM Tris pH 7.5, 150 μM compound

Cc1nccc2c1[nH]c1cc(OCCN(C)C)ccc12
binding [1]: yes
KD [2]: 104.4 ± 20 µM

COc1ccc2c(c1)NC(=O)c1cc(N)ccc1O2
KD [3]: 1.9 ± 0.2 µM

NC(=O)COc1ccc2oc3ccccc3c(=O)c2c1
KD [4]: > 500 µM

CNc1cc2c(=O)c3cc(O)ccc3oc2cn1
binding ([3]; tested up to 500 μM): no

NCc1c[nH]c2nc(N)[nH]c(=O)c12
binding [5, 13]: yes
binding [6, 13]: yes
binding [7]: yes
binding [8]: yes
binding [9, 13]: yes
binding [10, 13]: yes

CN(C)CCOc1ccc2sc3ccccc3c(=O)c2c1
KD [3]: 58 ± 30 µM

CN(C)CCOc1ccc2oc3ccccc3c(=O)c2c1
binding [11]: yes
binding [5, 14]: yes
EC50 [12]: 394 ± 157 µM
binding [6, 14]: yes
binding [9, 14]: yes
binding [10, 14]: yes

COc1ccc2c(c1)Oc1ccc(N)cc1C(=O)N2
KD [3]: 18.3 ± 7.0 µM

From doi:10.1101/2024.02.23.581746 (2024)
